Measured values published in patent US9339463B2, “Micronized opioid compositions having a specific particle size distribution” (priority 2007, dated 2016).
“And” between values parts separate entries of the source, which are not always exact repeats. Equal entries are not always repeated.

How the values were obtained:
Type in all cases: physicochemical
[1] = Particle size distribution by laser diffraction (Malvern Mastersizer 2000), oxycodone base
[2] = Chemical stability on storage: assay and impurities
Method: Samples of Example 2 and additional samples comprising micronized and non-micronized oxycodone useful for exemplary dosage forms are tested for their chemical stability and physical stability. Based on a comparison of stability data from micronized and non-micronized samples stored at both 25° C./60% RH and 40 C.°/75% RH, no differences are observed in the impurity profile through three months of study as shown in Tables 4 and 5 for exemplary lots. The impurities analyzed include (HOXY), 14-Hydroxycodeinone; (DHOXYN), 7,8-Dihydro-8,14-Dihydroxycodeinone; (DHOXY), 7,8-Dihydro-14-hydroxycodeine; (OXYE), Oxycodone ethylenolate; (OXYN), 1-Hydroxyoxycodone and Oxycodone N-oxide. Most of the impurities are found to be below the limit of quantitation (LOQ), except for HOXY and DHOXYN which were unchanged at 0.1%. […] The solid state stability of the micronized oxycodone is monitored for particle size, XRPD, DSC, and microscopy as shown in Table 6.

[3] = Particle size by optical microscopy, number % undersize; details: mean diameter
Method: As a secondary analytical method, the micronized and the non-micronized oxycodone analyzed by laser diffraction with results shown in Table 1, were analyzed by optical microscopy to evaluate particle size and the results are shown in Table 2. Sample aliquots (˜50 mg for micronized and ˜225 mg for non-micronized) were dispersed in 10 ml of sunflower oil and viewed on a Nikon microscope equipped with a 10× objective. Particle size (mean diameter) was determined using Image Pro® Plus software and expressed as a number % undersize. The particle size values determined by optical microscopy as shown in Table 2 are consistent with the laser diffraction particle size data shown in Table 1.

[4] = Physical stability on storage: particle size (Dv90) by laser diffraction
[5] = Table 1 analysis, lot 2 in duplicate
[6] = Time 0, listed as Non-micronized Oxycodone Free Base
[7] = additional laser diffraction analysis, Table 3
[8] = 1 month, stored, including at 25° C./60% RH and/or 40° C./75% RH (not specified)
[9] = 3 months, stored, including at 25° C./60% RH and/or 40° C./75% RH (not specified)
[10] = 6 months, stored, including at 25° C./60% RH and/or 40° C./75% RH (not specified)
[11] = 9 months, stored, including at 25° C./60% RH and/or 40° C./75% RH (not specified)
[12] = 12 months, stored, including at 25° C./60% RH and/or 40° C./75% RH (not specified)

SMILES: COc1ccc2c3c1O[C@H]1C(=O)CC[C@@]4(O)[C@@H](C2)N(C)CC[C@]314 [Lot 2 (waste), oxycodone]
- Particle size (Dv10) [1, 5]: 0.5, 0.5 μ
- Particle size (Dv50) [1, 5]: 1.6 μ and 2.3 μ
- Particle size (Dv90) [1, 5]: 3.3 μ and 4.9 μ

SMILES: COc1ccc2c3c1O[C@H]1C(=O)CC[C@@]4(O)[C@@H](C2)N(C)CC[C@]314 [Non-micronized, oxycodone]
- 1-HydroxyOXY ([2]; 25° C./60% RH, 1 mo): <LOQ
- DHOXY (7,8-Dihydro-14-hydroxycodeine) ([2]; 25° C./60% RH, 1 mo): <LOQ
- DHOXYN (7,8-Dihydro-8,14-Dihydroxycodeinone) ([2]; 25° C./60% RH, 1 mo): 0.10%
- HOXY (14-Hydroxycodeinone) ([2]; 25° C./60% RH, 1 mo): 0.08%
- OXYE (Oxycodone ethylenolate) ([2]; 25° C./60% RH, 1 mo): <LOQ
- OXYN ([2]; 25° C./60% RH, 1 mo): <LOQ
- Other (impurities; Table 5: >0.05%) ([2]; 25° C./60% RH, 1 mo): <LOQ
- Total impurities ([2]; 25° C./60% RH, 1 mo): 0.18%
- Assay ([2]; 25° C./60% RH, 1 mo, listed as Non-micronized Oxycodone Free Base): 99.6%
- 1-HydroxyOXY ([2]; 25° C./60% RH, 3 mo): <LOQ
- DHOXY (7,8-Dihydro-14-hydroxycodeine) ([2]; 25° C./60% RH, 3 mo): <LOQ
- DHOXYN (7,8-Dihydro-8,14-Dihydroxycodeinone) ([2]; 25° C./60% RH, 3 mo): 0.10%
- HOXY (14-Hydroxycodeinone) ([2]; 25° C./60% RH, 3 mo): 0.08%
- OXYE (Oxycodone ethylenolate) ([2]; 25° C./60% RH, 3 mo): <LOQ
- OXYN ([2]; 25° C./60% RH, 3 mo): <LOQ
- Other (impurities; Table 5: >0.05%) ([2]; 25° C./60% RH, 3 mo): <LOQ
- Total impurities ([2]; 25° C./60% RH, 3 mo): 0.18%
- Assay ([2]; 25° C./60% RH, 3 mo, listed as Non-micronized Oxycodone Free Base): 99.6%
- 1-HydroxyOXY ([2]; 40° C./75% RH, 1 mo): <LOQ
- DHOXY (7,8-Dihydro-14-hydroxycodeine) ([2]; 40° C./75% RH, 1 mo): <LOQ
- DHOXYN (7,8-Dihydro-8,14-Dihydroxycodeinone) ([2]; 40° C./75% RH, 1 mo): 0.10%
- HOXY (14-Hydroxycodeinone) ([2]; 40° C./75% RH, 1 mo): 0.08%
- OXYE (Oxycodone ethylenolate) ([2]; 40° C./75% RH, 1 mo): <LOQ
- OXYN ([2]; 40° C./75% RH, 1 mo): <LOQ
- Total impurities ([2]; 40° C./75% RH, 1 mo): 0.18%
- Assay ([2]; 40° C./75% RH, 1 mo, listed as Non-micronized Oxycodone Free Base): 99.6%
- 1-HydroxyOXY ([2]; 40° C./75% RH, 3 mo): <LOQ
- DHOXY (7,8-Dihydro-14-hydroxycodeine) ([2]; 40° C./75% RH, 3 mo): <LOQ
- DHOXYN (7,8-Dihydro-8,14-Dihydroxycodeinone) ([2]; 40° C./75% RH, 3 mo): 0.10%
- HOXY (14-Hydroxycodeinone) ([2]; 40° C./75% RH, 3 mo): 0.08%
- OXYE (Oxycodone ethylenolate) ([2]; 40° C./75% RH, 3 mo): <LOQ
- OXYN ([2]; 40° C./75% RH, 3 mo): <LOQ
- Other (impurities; Table 5: >0.05%) ([2]; 40° C./75% RH, 3 mo): <LOQ
- Total impurities ([2]; 40° C./75% RH, 3 mo): 0.18%
- Assay ([2]; 40° C./75% RH, 3 mo, listed as Non-micronized Oxycodone Free Base): 99.5%
- 1-HydroxyOXY ([2]; Time 0): <LOQ
- DHOXY (7,8-Dihydro-14-hydroxycodeine) ([2]; Time 0): <LOQ
- OXYE (Oxycodone ethylenolate) ([2]; Time 0): <LOQ
- OXYN ([2]; Time 0): <LOQ
- Other (impurities; Table 5: >0.05%) ([2]; Time 0): <LOQ
- Total impurities ([2]; Time 0): 0.18%
- Assay [2, 6]: 101.1%
- DHOXYN (7,8-Dihydro-8,14-Dihydroxycodeinone) [2, 6]: 0.10%
- HOXY (14-Hydroxycodeinone) [2, 6]: 0.08%
- % ≦ 1μ [3]: 21.4%
- % ≦ 5μ [3]: 50.7%
- % ≦ 10μ [3]: 69.1%
- Particle size (Dv10) [1, 5]: 5.7 μ
- Particle size (Dv50) [1, 5]: 20.5 μ
- Particle size (Dv90) [1, 5]: 55.5 μ
- Particle size (Dv90) ([1]; Table 1 analysis, lot 2 in duplicate, listed as non-micronized sample): 56 μ
- Particle size (Dv10) [1, 7]: 4.9 μ
- Particle size (Dv50) [1, 7]: 20.1 μ
- Particle size (Dv90) [1, 7]: 50.9 μ
- Particle size (Dv90) ([1]; additional laser diffraction analysis, Table 3, listed as non-micronized): 51 μ
- mean particle size ([1]; oxycodone base before micronization): 51 μ

SMILES: COc1ccc2c3c1O[C@H]1C(=O)CC[C@@]4(O)[C@@H](C2)N(C)CC[C@]314 [first high purity lot, oxycodone]
- Particle size (Dv90) [4, 8]: 5 μ
- Particle size (Dv90) [4, 9]: 5 μ
- Particle size (Dv90) [4, 10]: 5 μ
- Particle size (Dv90) [4, 11]: 6 μ
- Particle size (Dv90) [4, 12]: 6 μ
- Particle size (Dv90) ([4]; 25° C./60% RH, 1 month, listed as first high purity micronized lot): 4 μ
- Particle size (Dv90) ([4]; 25° C./60% RH, 3 months, listed as first high purity micronized lot): 5 μ
- Particle size (Dv90) ([4]; 25° C./60% RH, 6 months, listed as first high purity micronized lot): 5 μ
- Particle size (Dv90) ([4]; 25° C./60% RH, 9 months, listed as first high purity micronized lot): 7 μ
- Particle size (Dv90) ([4]; 25° C./60% RH, 12 months, listed as first high purity micronized lot): 6 μ
- Particle size (Dv90) ([4]; 40° C./75% RH, 1 month, listed as first high purity micronized lot): 5 μ
- Particle size (Dv90) ([4]; 40° C./75% RH, 3 months, listed as first high purity micronized lot): 5 μ
- Particle size (Dv90) ([4]; 40° C./75% RH, 6 months, listed as first high purity micronized lot): 5 μ
- Particle size (Dv90) ([4]; Time 0): 4 μ
- Particle size (Dv90) ([4]; Time 0, listed as first high purity micronized lot): 4 μ

SMILES: COc1ccc2c3c1O[C@H]1C(=O)CC[C@@]4(O)[C@@H](C2)N(C)CC[C@]314 [first lot, oxycodone]
- Particle size (Dv90) ([4]; 25° C./60% RH, 6 months): 7 μ
- Particle size (Dv90) ([4]; 25° C./60% RH, 9 months): 6 μ
- Particle size (Dv90) ([4]; 25° C./60% RH, 12 months): 7 μ
- Particle size (Dv90) ([4]; Time 0): 6 μ

SMILES: COc1ccc2c3c1O[C@H]1C(=O)CC[C@@]4(O)[C@@H](C2)N(C)CC[C@]314 [micronized oxycodone preparation, oxycodone]
- Particle size (Dv90) ([4]; Time 0): 5-6 μ
- Particle size (Dv90 at three months) ([4]; stored at 25° C./60% RH and 40°/75% RH, 3 months): 6-11 μ

SMILES: COc1ccc2c3c1O[C@H]1C(=O)CC[C@@]4(O)[C@@H](C2)N(C)CC[C@]314 [second high purity lot, oxycodone]
- Particle size (Dv90) [4, 8]: 4 μ
- Particle size (Dv90) [4, 9]: 4 μ
- Particle size (Dv90) [4, 10]: 5 μ
- Particle size (Dv90) [4, 11]: 5 μ
- Particle size (Dv90) [4, 12]: 5 μ
- Particle size (Dv90) ([4]; 25° C./60% RH, 1 month, listed as second high purity micronized lot): 4 μ
- Particle size (Dv90) ([4]; 25° C./60% RH, 3 months, listed as second high purity micronized lot): 4 μ
- Particle size (Dv90) ([4]; 25° C./60% RH, 6 months, listed as second high purity micronized lot): 6 μ
- Particle size (Dv90) ([4]; 25° C./60% RH, 9 months, listed as second high purity micronized lot): 5 μ
- Particle size (Dv90) ([4]; 25° C./60% RH, 12 months, listed as second high purity micronized lot): 6 μ
- Particle size (Dv90) ([4]; 40° C./75% RH, 1 month, listed as second high purity micronized lot): 5 μ
- Particle size (Dv90) ([4]; 40° C./75% RH, 3 months, listed as second high purity micronized lot): 5 μ
- Particle size (Dv90) ([4]; 40° C./75% RH, 6 months, listed as second high purity micronized lot): 6 μ
- Particle size (Dv90) ([4]; Time 0): 4 μ
- Particle size (Dv90) ([4]; Time 0, listed as second high purity micronized lot): 4 μ

SMILES: COc1ccc2c3c1O[C@H]1C(=O)CC[C@@]4(O)[C@@H](C2)N(C)CC[C@]314 [second lot, oxycodone]
- Particle size (Dv90) ([4]; 25° C./60% RH, 6 months): 5 μ
- Particle size (Dv90) ([4]; 25° C./60% RH, 9 months): 6 μ
- Particle size (Dv90) ([4]; 25° C./60% RH, 12 months): 6 μ
- Particle size (Dv90) ([4]; Time 0): 4 μ

SMILES: COc1ccc2c3c1O[C@H]1C(=O)CC[C@@]4(O)[C@@H](C2)N(C)CC[C@]314 [third high purity lot, oxycodone]
- Particle size (Dv90) [4, 8]: 4 μ
- Particle size (Dv90) [4, 9]: 4 μ
- Particle size (Dv90) [4, 10]: 5 μ
- Particle size (Dv90) [4, 11]: 5 μ
- Particle size (Dv90) [4, 12]: 5 μ
- Particle size (Dv90) ([4]; 25° C./60% RH, 1 month, listed as third high purity micronized lot): 4 μ
- Particle size (Dv90) ([4]; 25° C./60% RH, 3 months, listed as third high purity micronized lot): 4 μ
- Particle size (Dv90) ([4]; 25° C./60% RH, 6 months, listed as third high purity micronized lot): 5 μ
- Particle size (Dv90) ([4]; 25° C./60% RH, 9 months, listed as third high purity micronized lot): 5 μ
- Particle size (Dv90) ([4]; 25° C./60% RH, 12 months, listed as third high purity micronized lot): 5 μ
- Particle size (Dv90) ([4]; 40° C./75% RH, 1 month, listed as third high purity micronized lot): 4 μ
- Particle size (Dv90) ([4]; 40° C./75% RH, 3 months, listed as third high purity micronized lot): 5 μ
- Particle size (Dv90) ([4]; 40° C./75% RH, 6 months, listed as third high purity micronized lot): 5 μ
- Particle size (Dv90) ([4]; Time 0): 5 μ
- Particle size (Dv90) ([4]; Time 0, listed as third high purity micronized lot): 5 μ

SMILES: COc1ccc2c3c1O[C@H]1C(=O)CC[C@@]4(O)[C@@H](C2)N(C)CC[C@]314 [third lot, oxycodone]
- Particle size (Dv90) ([4]; 25° C./60% RH, 6 months): 6 μ
- Particle size (Dv90) ([4]; 25° C./60% RH, 9 months): 6 μ
- Particle size (Dv90) ([4]; 25° C./60% RH, 12 months): 7 μ
- Particle size (Dv90) ([4]; Time 0): 4 μ
